Article PMC8111499, “GW117: A novel serotonin (5‐HT2C) receptor antagonist and melatonin (MT1/MT2) receptor agonist with potential antidepressant‐like activity in rodents” (CNS Neuroscience & Therapeutics, 2021)

Biological target: T1, MT1 receptor (Homo sapiens, UniProt P48039)
T1 construct: purchased Perkin‐Elmer ES‐620
Test: [35S]‐GTPγS binding assay, MT1
Assay type: biochemical
Method: This experiment was mentioned earlier. ^27 In short, HEK293 cell membrane stably expressing human 5‐HT2C receptors or rat hippocampal tissue membrane or MT1/MT2 receptors was re‐suspended in buffer (50 mmol/L Tris, 100 mmol/L NaCl, 5 mmol/L MgCl2·6H2O, 0.1 mmol/L EDTA‐Na2·6H2O, 0.2 mmol/L EGTA, pH 7.4) and incubated with the test compound (100 μM GDP, 0.2 nM [^35S]‐GTP, or [^3H]PIP) for 60 min at 28℃. At the end of the experiment, Whatman GF/C filters pre‐soaked with distilled water were used for rapid filtration followed by washing with 5 ml of ice‐cold Tris buffer. Determination of non‐specific binding in the presence of GTPγS and radioactivity was measured by liquid scintillation counting. Calculation of the concentration produces a half‐maximal effect (EC50) and the maximal increase above the baseline value.

T1 sequence (P48039 whole entry): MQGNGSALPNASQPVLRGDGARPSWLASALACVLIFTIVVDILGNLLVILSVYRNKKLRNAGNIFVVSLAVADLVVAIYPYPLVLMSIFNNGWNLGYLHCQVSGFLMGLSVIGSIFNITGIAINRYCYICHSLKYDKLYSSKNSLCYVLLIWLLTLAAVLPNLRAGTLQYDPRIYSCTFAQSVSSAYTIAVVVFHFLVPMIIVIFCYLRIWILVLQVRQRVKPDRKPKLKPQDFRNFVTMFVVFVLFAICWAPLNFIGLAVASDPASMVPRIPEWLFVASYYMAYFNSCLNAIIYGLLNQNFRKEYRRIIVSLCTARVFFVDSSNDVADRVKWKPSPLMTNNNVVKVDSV

character of effect on MT1 receptor ([35S]‐GTPγS binding): full agonist | Emax ([35S]‐GTPγS binding, read-out: maximal increase over basal binding (% Emax), MT1 receptor): 104 ± 7.34% | EC50 (read-out: EC50 of stimulation of specific [35S]‐GTPγS binding, MT1 receptor): 2.49 nM
Structure (SMILES): [2H]C([2H])([2H])Oc1cc2c(CCNC(C)=O)cccc2cc1Cl [GW117]
